This is an account of results in patent publication US8877731B2, “Azido nucleosides and nucleotide analogs” (Alios Biopharma, Inc., priority 2010, dated 2014).

Read-outs that look alike come from different tables or passages of the source. Where only a bound is given, the exact number is not on record here.

In one experiment the test system is RSV Long strain. The experiment can be described thus: RSV CPE reduction assay. In kind it is cell-based. The note with it: human respiratory syncytial virus. The procedure: CPE reduction assays were performed as described by Sidwell and Huffman et al., Appl Microbiol. (1971) 22(5):797-801 with slight modifications. HEp-2 cells (ATCC) at a concentration of 6000 cell/well were infected with RSV Long strain (ATCC) at a multiplicity of infection (m.o.i.) of 0.01, and each of the test compounds were provided to duplicate wells at final concentrations starting from 100 μM using ⅓ stepwise dilutions. For each compound, two wells were set aside as uninfected, untreated cell controls (CC), and two wells per test compound received virus only as a control for virus replication (VC). […] At the end of the incubation, 20 μl of cell counting kit-8 reagent (CCK-8, Dojindo Molecular Technologies, Inc.) were added to each well. After 4 hour incubation, the absorbance was measured in each well according to manufacturer's instruction, and the 50% effective concentration (EC50) was calculated by using regression analysis, based on the mean O.D. at each concentration of compound.
(§1) Compounds of Formula (I) and Formula (II) are active in the assay as noted in Tables 2 and 3, where ‘A’ indicates an EC50<1 μM, ‘B’ indicates an EC50 of >1 μM and <10 μM, ‘C’ indicates an EC50>10 μM and <100 μM, and ‘D’ indicates an EC50>100 μM.

In another experiment the test system is RSV A2. The experiment can be described thus: RSV RT-PCR based assay. The format is cell-based. The note with it: human respiratory syncytial virus. On the procedure:
RT-PCR based assays were performed in HEp-2 cells (ATCC: CCL-23) at a concentration of 20000 cell/well were plated in 96 well plates and incubated overnight. Each of the test compounds were ⅓ serially diluted and dosed to HEp-2 cells in duplicates. The highest final concentration for each compound was 100 uM. After 24 hour compound pre-incubation, RSV A2 (ATCC: VR-1540) at MOI of 0.1 was added. Two wells per compound were set aside as uninfected, untreated cell controls (CC), and four wells per test compound received virus only as a control for virus replication (VC). The assay was stopped 4 days after virus infection and conditioned media was removed for viral RNA isolation. The quantities of the RSV virus were measured by real-time PCR using a set of RSV specific primers and probe. The data was analyzed with Prism software with EC50 defined as drug concentration that reduced the viral load 50% from the viral control (VC).
as §1

The mark [1] stands for this setting: 144 h, CPE assay, HEp-2 cells infected with RSV Long strain, m.o.i. 0.01, 6 days, CCK-8 readout, read-out: EC50.
Where [2] appears, read: RT-PCR assay, HEp-2 cells, 24 hour compound pre-incubation, RSV A2 at MOI 0.1, 4 days after infection, viral load, read-out: EC50.

The EC50 is the concentration that produces a half-maximal response. With `[N-]=[N+]=N[C@]1(CO)O[C@@H](n2ccc(N)nc2=O)C(F)(F)[C@@H]1O` [Compound 1, 4′-azido-2′-deoxy-2′,2′-difluorocytidine], the EC50 in the experiment with RSV Long strain (setting [1]) and in the experiment on RSV A2 (setting [2]) was less than 1 µM throughout.
On to `[N-]=[N+]=N[C@]1(CO)O[C@@H](n2ccc(=O)[nH]c2=O)C(F)(F)[C@@H]1O` [Compound 5, 4′-azido-2′-deoxy-2′,2′-difluorouridine], for which the concentration for a half-maximal effect (EC50) in the experiment with RSV Long strain (setting [1]) and in the experiment with RSV A2 (setting [2]) was more than 100 µM in each case.
In the case of `C[C@@H]1[C@H](n2ccc(=O)[nH]c2=O)O[C@@](CO)(N=[N+]=[N-])[C@H]1O` [Compound 6, 4′-azido-2′-deoxy-2′-methylarabinouridine], the concentration for a half-maximal effect (EC50) with RSV Long strain (setting [1]) is more than 100 µM.
Take `[N-]=[N+]=N[C@]1(CO)O[C@@H](n2ccc(N)nc2=O)[C@H](O)[C@@H]1O` [Compound 7, 4′-azidocytidine]: the EC50 with RSV Long strain (setting [1]) is 10 to 100 µM; in the experiment with RSV A2 (setting [2]), 1 to 10 µM.
Turning to `[N-]=[N+]=N[C@]1(CO)O[C@@H](n2ccc(=O)[nH]c2=O)[C@H](O)[C@@H]1O` [Compound 8, 4′-azidouridine], the EC50 in the experiment with RSV Long strain (setting [1]) is more than 100 µM.
On to `C[C@@H]1[C@H](n2ccc(N)nc2=O)O[C@@](CO)(N=[N+]=[N-])[C@H]1O` [Compound 9, 4′-azido-2′-deoxy-2′-methylarabinocytidine], for which the half-maximal effective concentration (EC50) in the experiment on RSV Long strain (setting [1]) is more than 100 µM.
As to `[N-]=[N+]=N[C@]1(CO)O[C@@H](n2ccc(N)nc2=O)[C@@H](O)[C@@H]1O` [Compound 11, 4′-azidoarabinocytidine], the EC50 in the experiment with RSV Long strain (setting [1]) and in the experiment with RSV A2 (setting [2]) was less than 1 µM throughout.
For the compound `[N-]=[N+]=N[C@]1(CO)O[C@@H](n2ccc(=O)[nH]c2=O)[C@@H](O)[C@@H]1O` [Compound 12, 4′-azidoarabinouridine], the EC50 with RSV Long strain (setting [1]) and in the experiment with RSV A2 (setting [2]) was more than 100 µM throughout.
Turning to `CC(C)OC(=O)[C@H](C)NP(=S)(OC[C@@]1(N=[N+]=[N-])O[C@@H](n2ccc(=O)[nH]c2=O)[C@H](O)[C@@H]1O)Oc1ccccc1` (stereo partly drawn) [Compound 15, 4′-azidouridine 5′-(O-phenyl-N—(S)-1-(isopropoxycarbonyl)eth-1-yl)thiophosphoramidate], the concentration giving a half-maximal response (EC50) in the experiment with RSV Long strain (HEp-2, 144 h) was less than 1 µM; in the experiment on RSV A2 (HEp-2), less than 1 µM.
Turning to `[N-]=[N+]=N[C@]1(CO)O[C@@H](n2ccc(=O)[nH]c2=O)[C@H](F)[C@@H]1O` [Compound 17, 4′-azido-2′-deoxy-2′-fluorouridine], the EC50 in the experiment with RSV Long strain (setting [1]) and with RSV A2 (setting [2]) was more than 100 µM each time.
For the compound `CC(C)OC(=O)[C@H](C)NP(=O)(OC[C@@]1(N=[N+]=[N-])O[C@@H](n2ccc(N)nc2=O)C(F)(F)[C@@H]1O)Oc1ccccc1` (stereo partly drawn) [Compound 18, 4′-azido-2′-deoxy-2′,2′-difluorocytidine 5′-(O-phenyl-N—(S)-1-(isopropoxycarbonyl)ethyl)phosphoramidate], the concentration for a half-maximal effect (EC50) in the experiment with RSV Long strain (setting [1]) and in the experiment with RSV A2 (setting [2]) was 1 to 10 µM throughout.
Turning to `CC(C)OC(=O)[C@H](C)NP(=O)(OC[C@@]1(N=[N+]=[N-])O[C@@H](n2ccc(=O)[nH]c2=O)C(F)(F)[C@@H]1O)Oc1ccccc1` (stereo partly drawn) [Compound 19, 4′-azido-2′-deoxy-2′,2′-difluorouridine 5′-(O-phenyl-N—(S)-1-(isopropoxycarbonyl)ethyl)phosphoramidate], the EC50 in the experiment on RSV Long strain (setting [1]) and in the experiment with RSV A2 (setting [2]) was more than 100 µM in each case.
In the case of `[N-]=[N+]=N[C@]1(CO)O[C@@H](n2ccc(=O)[nH]c2=O)[C@@H](F)[C@@H]1O` [Compound 20, 4′-azido-2′-deoxy-2′-fluoroarabinouridine], the EC50 in the experiment with RSV Long strain (setting [1]) and in the experiment on RSV A2 (setting [2]) was more than 100 µM throughout.
With `[N-]=[N+]=N[C@@]12COP(=O)(O)O[C@H]1[C@@H](F)[C@H](n1ccc(=O)[nH]c1=O)O2` [Compound 32, 4′-azido-2′-deoxy-2′-fluorouridine 3′,5′-cyclic phosphate], the EC50 in the experiment on RSV Long strain (setting [1]) is more than 100 µM.
Regarding `[N-]=[N+]=N[C@]1(CO)O[C@@H](n2ccc(N)nc2=O)[C@H](Cl)[C@@H]1O` [Compound 53, 4′-azido-2′-chloro-2′-deoxycytidine], in the experiment on RSV A2 (setting [2]), the EC50 lay within 1 to 10 µM.
